Test results from patent US20200061047A1, “NEW USE OF RIFAMYCIN-QUINOLIZIDONE DUAL-ACTION MOLECULE” (TenNor Therapeutics Limited, priority 2017, published 2020).
Values after ≈ are worked out from the molar mass of the structure shown. Read-outs that look alike come from different tables or passages of the source.

Assays:
Format in all cases: cell-based
[1] = test system: Bacteroides bifidum ATCC 1569; assay: MIC, agar dilution drug sensitivity test; settings: ATCC1569, Table 1
[2] = test system: Helicobacter pylori ATCC 700824; assay: MIC, agar dilution drug sensitivity test; settings: ATCC700824, Table 1
[3] = test system: Lactobacillus salivarius JMI 941623; assay: MIC, agar dilution drug sensitivity test; settings: Ligilactobacillus salivarius, JMI941623, Table 1
[4] = test system: Peptostreptococcus prevotii ATCC 9321; assay: MIC, agar dilution drug sensitivity test; settings: Anaerococcus prevotii, ATCC9321, Table 1
[5] = test system: Proteus mirabilis JMI 933599; assay: MIC, agar dilution drug sensitivity test; settings: JMI933599, Table 1
[6] = test system: Salmonella spp ATCC 35987; assay: MIC, agar dilution drug sensitivity test; settings: ATCC35987, Table 1
Procedure: In this embodiment, compound I-rifamycin-quinolizidone dual-action molecule is used in a drug sensitivity test on pathogenic bacteria associated with hepatic encephalopathy, the pathogenic bacteria including the above ammonia-producing bacteria. Except that Haemophilus is tested using the microscale broth dilution method, all the other bacteria are tested using the agar dilution method consistent with that in the Guideline of the Clinical and Laboratory Standards Institute (CLSI; 1-3). All the other drug susceptibility tests are performed under anaerobic conditions except that some selective isolates are tested under both aerobic and anaerobic conditions. Control compounds include metronidazole, rifampicin, clindamycin (under anaerobic conditions) and ciprofloxacin (under aerobic and anaerobic conditions).
The tested clinical isolates may be reference strains obtained from American Type Culture Collection, ATCC, Manassas, Va. After being received, the strains are respectively inoculated on appropriate agar plates and placed under optimized conditions for growth. The growing strains are cloned in the broth containing cryoprotectant to prepare bacterial suspensions, and the bacterial suspensions are subpackaged and then stored in freezing at −80° C. Before test, the frozen bacteria are inoculated into appropriate agar dishes and cultured for growth. Anaerobic bacteria grow for 48 hours at 35° C. in a Bactron II oxygen-free cabinet (Shel Lab, Cornelius, Oreg.) before test. […]
The Minimum Inhibitory Concentration (MIC) is determined using the agar dilution method.
The MIC values of all microorganisms except Haemophilus are determined using the agar dilution method in the CLSI (1-2). […] After culturing, the MIC is determined in accordance with the CLSI guideline (1-2).

[7] = test system: Yersinia enterocolitica ATCC 23715; assay: MIC, agar dilution drug sensitivity test; settings: ATCC23715, Table 1
[8] = test system: Bacteroides vulgatus JMI 927011; assay: MIC, agar dilution drug sensitivity test; settings: Phocaeicola vulgatus, JMI927011
[9] = test system: Streptococcus parasanguinis MMX 5671; assay: MIC, agar dilution drug sensitivity test; settings: Streptococcus parasanguinis, MMX5671, Streptococcus parasanguinis MMX 5671, read-out: MIC
[10] = test system: Streptococcus salivarius ATCC 25975; assay: MIC, agar dilution drug sensitivity test; settings: Streptococcus salivarius, ATCC25975, Streptococcus salivarius ATCC 25975, read-out: MIC
[11] = test system: Clostridium difficile ATCC 700057; assay: MIC, agar dilution drug sensitivity test; settings: Clostridioides difficile, ATCC700057
[12] = test system: Clostridium perfringens ATCC 13124; assay: microbe, parasite or virus in culture; settings: ATCC13124

SMILES | MIC [1] [mg/L] | MIC [2] [mg/L] | MIC [3] [mg/L] | MIC [4] [mg/L] | MIC [5] [mg/L] | MIC [6] [mg/L] | MIC [7] [mg/L] | MIC [8] [mg/L] | MIC ([9]; Aerobic) [mg/L] | MIC ([9]; Anaerobic) [mg/L] | MIC ([10]; Aerobic) [mg/L] | MIC ([10]; Anaerobic) [mg/L] | MIC [11] [mg/L] | MIC [12] [mg/L]
O=C(O)c1cn(C2CC2)c2cc(N3CCNCC3)c(F)cc2c1=O [Ciprofloxacin, ciprofloxacin] | 2 (≈ 6.04 µM) | 0.12 (≈ 0.362 µM) | 1 (≈ 3.02 µM) | 1 (≈ 3.02 µM) | 0.0015 (≈ 0.00453 µM) | 0.015 (≈ 0.0453 µM) | 0.015 (≈ 0.0453 µM) | > 16 | 1 (≈ 3.02 µM) | 1 (≈ 3.02 µM) | 1 (≈ 3.02 µM) | 2 (≈ 6.04 µM) | – | –
CO[C@H]1/C=C/O[C@@]2(C)Oc3c(C)c(O)c4c(O)c(c(/C=N/N5CCC(N(C)C6([C@@H]7CCN(c8c(F)cn9c(=O)c(C(=O)O)cc(C%10CC%10)c9c8C)C7)CC6)CC5)c(O)c4c3C2=O)NC(=O)/C(C)=C\C=C\[C@H](C)[C@H](O)[C@@H](C)[C@@H](O)[C@@H](C)[C@H](OC(C)=O)[C@@H]1C [Compound I, (R)-3-[(4-{1-[1-(3-carboxy-1-cyclopropyl-7-fluoro-9-methyl-4-oxo-4H-quinolizine-8-yl)-pyrrolidin-3-yl-cyclopropyl]-methylamino}-piperidin-1-ylimino)-methylene]-rifamycin SV] | 16 (≈ 13.3 µM) | 0.12 (≈ 0.0996 µM) | 0.5 (≈ 0.415 µM) | 0.03 (≈ 0.0249 µM) | 8 (≈ 6.64 µM) | 0.06 (≈ 0.0498 µM) | 0.12 (≈ 0.0996 µM) | 16 (≈ 13.3 µM) | 0.25 (≈ 0.207 µM) | 8 (≈ 6.64 µM) | 0.5 (≈ 0.415 µM) | > 64 | 0.004 (≈ 0.00332 µM) | 0.03 (≈ 0.0249 µM)
